According to PubChem BioAssay (NCI):
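1) Cells in 96-well plates. 2) Compound, 48 h, 5 concentrations. 3) Linear interpolation between surrounding doses. 4) Unreached endpoint = highest concentration. TGI marks complete inhibition of growth.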

Experiments:
Experiment in all cases: inhibition of tumour cell growth, NCI panel, 48 h
[1] = test system: A498 renal
[2] = test system: A549 NSCLC
[3] = test system: ACHN renal
[4] = test system: BT-549 breast
[5] = test system: CAKI-1 renal
[6] = test system: CCRF-CEM leukemia
[7] = test system: COLO 205 colon
[8] = test system: DU-145 prostate
[9] = test system: EKVX NSCLC
[10] = test system: HCC-2998 colon
[11] = test system: HCT-116 colon
[12] = test system: HCT-15 colon
[13] = test system: HL-60(TB) leukemia
[14] = test system: HOP-62 NSCLC
[15] = test system: HOP-92 NSCLC
[16] = test system: HS 578T breast
[17] = test system: HT29 colon
[18] = test system: IGROV1 ovarian
[19] = test system: K-562 leukemia
[20] = test system: KM12 colon
[21] = test system: LOX IMVI melanoma
[22] = test system: M14 melanoma
[23] = test system: MALME-3M melanoma
[24] = test system: MCF7 breast
[25] = test system: MDA-MB-231 breast
[26] = test system: MDA-MB-435
[27] = test system: MDA-N
[28] = test system: NCI-H226 lung
[29] = test system: NCI-H460 lung
[30] = test system: NCI-H522 lung
[31] = test system: NCI/ADR-RES ovarian
[32] = test system: OVCAR-3 ovarian
[33] = test system: OVCAR-5 ovarian
[34] = test system: OVCAR-8 ovarian
[35] = test system: PC-3 prostate
[36] = test system: RPMI-8226 leukemia
[37] = test system: RXF 393 renal
[38] = test system: SF-268 CNS
[39] = test system: SF-295 CNS
[40] = test system: SF-539 CNS
[41] = test system: SK-MEL-2 melanoma
[42] = test system: SK-MEL-28 melanoma
[43] = test system: SK-MEL-5 melanoma
[44] = test system: SK-OV-3 ovarian
[45] = test system: SN12C renal
[46] = test system: SNB-19 CNS
[47] = test system: SNB-75 CNS
[48] = test system: SR leukemia
[49] = test system: SW-620 colon
[50] = test system: T-47D breast
[51] = test system: TK-10 renal
[52] = test system: U251 CNS
[53] = test system: UACC-62 melanoma
[54] = test system: UO-31 renal
[55] = test system: 786-0 renal
[56] = test system: MOLT-4 leukemia
[57] = test system: NCI-H23 lung
[58] = test system: OVCAR-4 ovarian
[59] = test system: UACC-257 melanoma

CCOC(=O)NC(C(F)(F)F)(C(F)(F)F)P(=O)(OCC(C)C)OCC(C)C showed a TGI [1] of over 100 µM, a TGI [2] of over 100 µM and a TGI [3] of 52.8 µM. For the same molecule, the TGI [4] was 29 µM, the TGI [5] was over 100 µM and the TGI [6] was over 100 µM. The TGI [7] was 31 µM, the TGI [8] was over 100 µM and the TGI [9] was 74.6 µM. For the same molecule, the TGI [10] was over 100 µM, the TGI [11] was 16.6 µM and the TGI [12] was 17.1 µM. For the same molecule, the TGI [13] was 22.4 µM, the TGI [14] was over 100 µM and the TGI [15] was 36.7 µM. For the same molecule, the TGI [16] was 56.5 µM, the TGI [17] was 33.8 µM and the TGI [18] was 51.5 µM. For the same molecule, the TGI [19] was over 100 µM, the TGI [20] was over 100 µM and the TGI [21] was 20.6 µM. The TGI [22] was 26.1 µM, the TGI [23] was 60.7 µM and the TGI [24] was 21.1 µM. It also gave a TGI [25] of 39 µM, a TGI [26] of over 100 µM and a TGI [27] of 27.1 µM. For the same molecule, the TGI [28] was 32.6 µM, the TGI [29] was over 100 µM and the TGI [30] was 11.6 µM. It also gave a TGI [31] of 47 µM, a TGI [32] of 64 µM and a TGI [33] of 58.7 µM. It also gave a TGI [34] of 31.4 µM, a TGI [35] of over 100 µM and a TGI [36] of over 100 µM. The TGI [37] was 24.5 µM, the TGI [38] was 57.3 µM and the TGI [39] was over 100 µM. For the same molecule, the TGI [40] was 48.8 µM, the TGI [41] was 43 µM and the TGI [42] was 54.2 µM. For the same molecule, the TGI [43] was 24.9 µM, the TGI [44] was 66.9 µM and the TGI [45] was 49 µM. It also gave a TGI [46] of over 100 µM, a TGI [47] of 97.1 µM and a TGI [48] of over 100 µM. The TGI [49] was 17.2 µM, the TGI [50] was over 100 µM and the TGI [51] was 65.8 µM. For the same molecule, the TGI [52] was over 100 µM, the TGI [53] was 29.4 µM and the TGI [54] was 30.3 µM.
CCNC(=O)OCC1C2=C(C(=O)C(C)=C(N)C2=O)N2CC3C(N3C)C12OC (configuration not stated) was tested, and the TGI [55] was over 83 µM, the TGI [1] was 77 µM and the TGI [2] was over 100 µM. For the same molecule, the TGI [3] was over 61.9 µM, the TGI [4] was 99.1 µM and the TGI [5] was over 100 µM. For the same molecule, the TGI [6] was over 100 µM, the TGI [7] was over 100 µM and the TGI [8] was over 100 µM. The TGI [9] was over 100 µM, the TGI [10] was 35.3 µM and the TGI [11] was over 63.5 µM. It also gave a TGI [12] of 50.7 µM, a TGI [13] of over 44.1 µM and a TGI [14] of over 100 µM. The TGI [15] was over 100 µM, the TGI [16] was over 100 µM and the TGI [17] was over 100 µM. It also gave a TGI [18] of 77 µM, a TGI [19] of over 100 µM and a TGI [21] of over 68.7 µM. For the same molecule, the TGI [22] was over 100 µM, the TGI [23] was 41.8 µM and the TGI [24] was over 100 µM. The TGI [25] was over 100 µM, the TGI [26] was over 100 µM and the TGI [27] was over 100 µM. For the same molecule, the TGI [56] was over 76.3 µM, the TGI [28] was over 100 µM and the TGI [57] was 14.2 µM. It also gave a TGI [29] of 12.1 µM, a TGI [30] of 34.5 µM and a TGI [31] of over 100 µM. For the same molecule, the TGI [32] was over 86.2 µM, the TGI [58] was over 79 µM and the TGI [33] was over 100 µM. It also gave a TGI [34] of over 100 µM, a TGI [35] of over 100 µM and a TGI [36] of over 100 µM. The TGI [37] was over 100 µM, the TGI [38] was over 100 µM and the TGI [39] was over 100 µM. It also gave a TGI [40] of over 85.1 µM, a TGI [41] of 71.2 µM and a TGI [42] of over 100 µM. The TGI [43] was 29.5 µM, the TGI [44] was over 100 µM and the TGI [45] was over 100 µM. The TGI [46] was over 100 µM, the TGI [47] was over 100 µM and the TGI [48] was over 32.6 µM. It also gave a TGI [49] of 32 µM, a TGI [50] of over 100 µM and a TGI [51] of over 100 µM. For the same molecule, the TGI [52] was over 100 µM, the TGI [59] was over 100 µM and the TGI [53] was 33.4 µM. It also gave a TGI [54] of 64.3 µM.
